The values that follow come from ChEMBL document CHEMBL1157539, “Thousands of chemical starting points for antimalarial lead identification” (Nature, 2010).

This test concerns Plasmodium falciparum. Description: GSK_TCMDC: Inhibition of Plasmodium falciparum 3D7 in whole erythrocytes, using parasite LDH activity as an index of growth. Format: functional, organism-based. The following applies: Plasmodium falciparum, 3D7.
As to `Nc1nc(N)c2c(Oc3cccc(Cl)c3)cccc2n1`, the XC50 is 471 nM.
Compound `Cc1cnccc1/C=C/c1cccc(OCCCN2CCc3ccc(S(C)(=O)=O)cc3CC2)c1` yielded an XC50 of 615 nM.
`Cc1ccc(NC(=O)Nc2cccc(Cl)c2)cc1-c1ccc(C(=O)Nc2ccncc2)cc1` registered an XC50 of 738 nM.
Take `CC(C)COc1ccc(Cl)cc1Cc1ccc(-c2nc3ccc(F)c(F)c3[nH]2)o1`: the XC50 came to 942 nM.
The same measure for `c1ccc(Oc2ccc(Nc3ccnc4ccc(-c5ccco5)cc34)cc2)cc1`: 928 nM; for `COc1ccc(N2CCN(CCCCNC(=O)c3ccc(NC(=O)c4cc(C(F)(F)F)cc(C(F)(F)F)c4)cc3)CC2)cc1OC`: 221 nM.
`N=C1c2ccccc2CN1CC(=O)c1ccc(Cl)c(Cl)c1` returned an XC50 of 728 nM.
In turn, `COc1ccc(Cl)cc1N1CCN(CCCNC(=O)c2ccc(-c3nc4cc(Cl)c(F)cc4[nH]3)s2)CC1` showed an XC50 of 314 nM.
With `CN(C)CCOc1cc(NC(=O)Nc2ccc3c(c2)CCCC3=O)ccc1I`, the XC50 came out at 939 nM.
In turn, `Cc1noc(C)c1-c1ccc2c(Nc3nccc4ccccc34)c(C(N)=O)cnc2c1` came in with an XC50 of 895 nM.
In turn, `CN1CCN(C(C(=O)NCc2cc(Cl)cc(Cl)c2)c2ccc(Nc3cccc(C(F)(F)F)c3)cc2)CC1` (configuration not stated) gave an XC50 of 1120 nM.
The same measure for `COc1ccc2nccc([C@@H](O)CN3CCC(NC(=O)c4ccc(CN5CCN(c6cccc(C)c6)CC5C)cc4)CC3)c2c1` (some centres not stated): 211 nM; for `CCCCCCc1c(C)nc2cc(OC)ccc2c1O`: 119 nM; for `Cc1nc(C)c(-c2ccc(Oc3ccc(Cl)cc3)c(Cl)c2)c(O)c1Br`: 495 nM.
Compound `CCc1ccccc1N=C1c2c(cccc2[N+](=O)[O-])C(=O)C1C(C)=O` (configuration not stated) gave an XC50 of 90.9 nM.
As for `COc1ccc(NC(=O)[C@H](CC(C)C)Nc2cc(C)nc(NCCc3ccccc3)n2)cc1`, the figure is 888 nM; as for `Cc1nc(-c2nc(NCc3ccncc3)ncc2-c2ccsc2)sc1C`, 989 nM.
As for `CCCc1cc(OC)c(CC2c3cc(O)c(Cl)cc3C(c3ccccc3)CN2C)cc1OC` (configuration not stated), the figure is 430 nM.
In the case of `Cc1cc(CN2CCC(N3CC(c4ccccc4)(c4ccccc4)OCC3=O)C2)ccc1O` (configuration not stated), the XC50 is 1080 nM.
As for `CC[C@H](C)[C@@H](C(=O)N1CCOCC1)N1CC[C@H](NS(=O)(=O)CC(C)(C)c2ccc(Cl)cc2)C1=O`, the XC50 worked out at 550 nM.
As for `Cc1cc(C)cc(OCC(O)CN(Cc2cc(Cl)cc(Cl)c2)C(=O)Nc2ccc([N+](=O)[O-])cc2)c1` (configuration not stated), the figure is 804 nM; as for `COc1ccc2nccc([C@@H](O)CN3CCC(NCc4cc5cc(C)ccc5s4)CC3)c2c1`, 636 nM.
On to `CN1CCN(C(=O)CN2CCC3(CCC2=O)NC(=O)c2ccccc2O3)CC1` (configuration not stated), for which the XC50 stood at 213 nM.
The compound `CCCCCn1c(Sc2ccc(C#N)c([N+](=O)[O-])c2)nnc1-c1ccccc1` yielded an XC50 of 860 nM.
`COc1ccccc1CCNc1nc(C)cc(N[C@@H](CC(C)C)C(=O)NCCc2ccccc2)n1`: the XC50 is 718 nM.
On to `COc1cc2nc(N3CCC(NC(=O)c4cccc(N(C)C)c4)CC3)nc(N)c2cc1OC`, for which the XC50 was 614 nM.
For `O=S(=O)(NC1CCN(c2ccnc3cc(Cl)ccc23)C1)c1ccc(C(F)(F)F)cc1` (configuration not stated), the XC50 came out at 298 nM.
In turn, `Cc1nc(N)nc(N)c1OCc1ccc(Cl)c(Cl)c1` registered an XC50 of 131 nM.
For `CC(C)(C)NC(=O)COC(=O)c1c2c(nc3ccccc13)C(=Cc1ccc3c(c1)OCO3)CCC2`, the XC50 was 735 nM.
For the compound `Cc1nc2c(Nc3nc(-c4ccncc4)cs3)ncnc2n1-c1ccccc1Cl`, the XC50 is 176 nM.
For the compound `COc1cccc(-c2nc3c(N4CCN(c5ccncc5)CC4)cccc3n2CC2CCCCCN2)n1` (configuration not stated), the XC50 is 1060 nM.
As for `COc1ccc(CN2CCC(CNCc3cccc(-c4ccccc4)c3)CC2)cc1`, the XC50 came out at 236 nM.
As for `COC(=O)c1ccc(Nc2nccc(Nc3ccc(Oc4ccccc4)cc3)n2)cc1`, the XC50 came out at 1020 nM.
As for `CCOc1ccc(-c2n[nH]c(C(F)(F)F)c2-c2ccccc2OC)c(O)c1`, the figure is 1140 nM; as for `CCCNC[C@@H](O)[C@H](Cc1ccccc1)NC(=O)c1cc(NCC)cc(N2CCCC2=O)c1`, 760 nM.
`Cc1cc(NCC(C)C)c2[nH]nc(-c3ccccc3)c2n1`: the XC50 amounted to 744 nM.
Take `Cn1cncc1C(=O)Nc1cccc(-c2ccc(-c3nc4ccccc4[nH]3)cc2)c1`: the XC50 came out at 854 nM.
As for `Cc1cccc2nc(-c3cccc(-c4ccc(NC(=O)c5ccc(=O)[nH]n5)cc4)c3)[nH]c12`, the XC50 stood at 857 nM.
With `O=C(Nc1cccc(F)c1)N1CCC(CN2CCOC(c3ccccc3)(c3ccccc3)C2)CC1`, the XC50 stood at 198 nM.
Compound `Cc1cccc2nc(-c3cccc(-c4ccc(CNCc5cccc(N)c5)cc4)c3)[nH]c12` yielded an XC50 of 260 nM.
The same measure for `COc1cc2nc(N3CCC(CNC(=O)c4ccc(-c5ccc(O)cc5)cc4)CC3)nc(N)c2cc1OC`: 175 nM; for `N#Cc1ccc(-c2ccc(C(=O)NCCCCN3CCC(c4cc(Br)c5c(c4O)CCCC5)CC3)cc2)cc1`: 154 nM.
`Cc1c[nH]c2cc(/C=C/C(=O)NC3CCC(CCN4CCc5ccc(C#N)cc5CC4)CC3)ccc12` (configuration not stated) returned an XC50 of 801 nM.
The compound `O=C(NC1CCN(Cc2ccccc2)CC1)c1ccc(CNC2CCN(Cc3ccccc3)CC2)cc1` displayed an XC50 of 872 nM.
`CCOc1ccc(C2CCN(CCCCNC(=O)c3ccc(NC(=O)c4ccc(Cl)cc4)cc3)CC2)c(Cl)c1`: the XC50 worked out at 731 nM.
Regarding `O=C(c1cccc(-c2cccc(-c3nc4cc(F)ccc4[nH]3)c2)c1)N1CCCCC1CN1CCC(O)C1` (configuration not stated), the XC50 was found to be 882 nM.
For `Nc1nccc2ccc(-c3ccc4ncccc4c3)cc12`, the XC50 stood at 112 nM.
In turn, `CCNC(=O)N1CCc2ccc(Oc3nc(NCc4ccccc4OC)ncc3C)cc2CC1` yielded an XC50 of 1070 nM.
Compound `COc1cc(NC(=O)/C=C/c2cc(F)cc(F)c2F)cc(OCCN2CCN(CCN3CCOCC3)CC2)c1` showed an XC50 of 771 nM.
Compound `Cn1ncc2ccc(Nc3nccc(-c4ccc5c(c4)c(N)nn5C)n3)cc21` gave an XC50 of 648 nM.
Turning to `COc1ccc2nccc([C@@H](O)CN3CCC(NC(=O)Cn4nc(-c5ccc(C(F)(F)F)cc5)ccc4=O)CC3)c2c1`, the XC50 was determined as 737 nM.
In turn, `Cn1c(=O)c2nc(-c3ccc(Cl)cc3)nnc2n(CCCC#N)c1=O` yielded an XC50 of 153 nM.
`OC1(Cc2ccccc2)CCN(Cc2cccc(-c3c[nH]c4nc(NC5CCCC5)ncc34)c2)CC1` gave an XC50 of 929 nM.
`COc1cccc(-c2cccc(NC(=O)C3CCN(Cc4ccc(O)cc4)CC3)c2)c1` returned an XC50 of 1030 nM.
`Cc1cccc2nc(-c3cccc(-c4cccc(CNCCc5cccn5C)c4)c3)[nH]c12` displayed an XC50 of 733 nM.
For `CC(=O)N1N=C(c2[nH]c3ccc(Br)cc3c2C)OC1c1ccccc1` (configuration not stated), the XC50 was 777 nM.
In turn, `COc1ccc2ncc(Cl)c(CCN3CCC(NCc4ccc5c(n4)NC(=O)CO5)CC3)c2c1` displayed an XC50 of 470 nM.
On to `COc1ccc2nccc([C@@H](O)CN3CCC(NCC(O)Cc4ccccc4)CC3)c2c1` (some centres not stated), for which the XC50 was 671 nM.
For the compound `CCOc1ncccc1CN1CCC(N2CCc3cc(NC(=O)c4ccco4)ccc32)C1` (configuration not stated), the XC50 was found to be 758 nM.
The same measure for `CN(C)C(CNC(=O)c1cc(-c2ccncc2)c(-c2ccc(NC(=O)Nc3cccc(Cl)c3)cc2)o1)c1ccccc1` (configuration not stated): 183 nM.
As for `Cc1cc(N(C)C)nc(Nc2ccc(NC(=O)c3c(F)cccc3Cl)cc2)n1`, the figure is 1090 nM; as for `COc1cc(CCN(C)Cc2ccc(OC)c(OC)c2)ccc1NC(=O)c1cccc2c(O)c3cccc(F)c3nc12`, 203 nM.
